Experimental findings from the supplement of paper PMC10307832 are described below.

Holding throughout (assay): relative viability (nuclei count vs DMSO), 5 days (fraction); higher = more cells survive
Compound in the experiment “Neratinib + Palbociclib”: CCOc1cc2ncc(C#N)c(Nc3ccc(OCc4ccccn4)c(Cl)c3)c2cc1NC(=O)/C=C/CN(C)C [Neratinib] + CC(=O)c1c(C)c2cnc(Nc3ccc(N4CCNCC4)cn3)nc2n(C2CCCC2)c1=O [Palbociclib] (partner 0.5 µM)
In short, it runs like this: (§1)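 Relative viability divides the nuclei count in treated wells by that in vehicle wells. Lung cancer cell lines were seeded in 1536-well plates, dosed by pin tool the next day, and fixed and stained after 5 days in one step with final 0.05% Triton X-100, 1% formaldehyde and 1 ug/ml Hoechst. Dosing was a single drug or a fixed anchor-drug dose plus five library-drug doses (not always all listed) in √10 steps, and values are medians of duplicate plates imaged at 4×.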

Compound in the experiment “Neratinib + Bortezomib”: CCOc1cc2ncc(C#N)c(Nc3ccc(OCc4ccccn4)c(Cl)c3)c2cc1NC(=O)/C=C/CN(C)C [Neratinib] + CC(C)C[C@H](NC(=O)[C@H](Cc1ccccc1)NC(=O)c1cnccn1)B(O)O [Bortezomib] (partner 0.002 µM)
In short, it runs like this: as §1

Compound in the experiment “Neratinib + Alpelisib”: CCOc1cc2ncc(C#N)c(Nc3ccc(OCc4ccccn4)c(Cl)c3)c2cc1NC(=O)/C=C/CN(C)C [Neratinib] + Cc1nc(NC(=O)N2CCC[C@H]2C(N)=O)sc1-c1ccnc(C(C)(C)C(F)(F)F)c1 [Alpelisib] (partner 2 µM)
In short, it runs like this:
as §1

Compound in the experiment “Neratinib + Dasatinib”: CCOc1cc2ncc(C#N)c(Nc3ccc(OCc4ccccn4)c(Cl)c3)c2cc1NC(=O)/C=C/CN(C)C [Neratinib] + Cc1nc(Nc2ncc(C(=O)Nc3c(C)cccc3Cl)s2)cc(N2CCN(CCO)CC2)n1 [Dasatinib] (partner 0.075 µM)
The procedure, abridged:
as §1

Consider NCI-H2228, for which the relative viability was found to be 0.666 in the experiment with Neratinib + Palbociclib (first compound 0.01 µM); 0.95 with Neratinib + Palbociclib (first compound 0.03162 µM); 0.765 with Neratinib + Palbociclib (first compound 0.1 µM); 0.655 in the experiment with Neratinib + Palbociclib (first compound 0.3162 µM); 0.169 with Neratinib + Palbociclib (first compound 1 µM); 1.16 with Neratinib + Bortezomib (first compound 0.01 µM). Moreover, the relative viability with Neratinib + Bortezomib (first compound 0.03162 µM) amounted to 1.03; with Neratinib + Bortezomib (first compound 0.1 µM), 1.01; with Neratinib + Bortezomib (first compound 0.3162 µM), 0.765; with Neratinib + Bortezomib (first compound 1 µM), 0.295; in the experiment with Neratinib + Alpelisib (first compound 0.01 µM), 0.702; with Neratinib + Alpelisib (first compound 0.03162 µM) it was 0.703. Moreover, the relative viability in the experiment with Neratinib + Alpelisib (first compound 0.1 µM) stood at 0.599; with Neratinib + Alpelisib (first compound 0.3162 µM) it was 0.497; in the experiment with Neratinib + Alpelisib (first compound 1 µM), 0.243; with Neratinib + Dasatinib (first compound 0.01 µM), 0.494; with Neratinib + Dasatinib (first compound 0.03162 µM), 0.566; with Neratinib + Dasatinib (first compound 0.1 µM) it was 0.366. In addition, the relative viability with Neratinib + Dasatinib (first compound 0.3162 µM) came out at 0.45; with Neratinib + Dasatinib (first compound 1 µM), 0.102.

For the cell line HCC-827, the relative viability in the experiment with Neratinib + Palbociclib (first compound 0.01 µM) amounted to 0.503; with Neratinib + Palbociclib (first compound 0.03162 µM), 0.509; with Neratinib + Palbociclib (first compound 0.1 µM), 0.513; with Neratinib + Palbociclib (first compound 0.3162 µM) it was 0.194; with Neratinib + Palbociclib (first compound 1 µM) it was 0.15; with Neratinib + Bortezomib (first compound 0.01 µM) it was 1.05. Moreover, the relative viability with Neratinib + Bortezomib (first compound 0.03162 µM) came out at 1.07; with Neratinib + Bortezomib (first compound 0.1 µM), 0.876; with Neratinib + Bortezomib (first compound 0.3162 µM) it was 1.13; with Neratinib + Bortezomib (first compound 1 µM), 0.376; with Neratinib + Alpelisib (first compound 0.01 µM) it was 1.05; with Neratinib + Alpelisib (first compound 0.03162 µM) it was 1.11. For the same cell line, the relative viability turned out to be 0.967 with Neratinib + Alpelisib (first compound 0.1 µM); 0.583 with Neratinib + Alpelisib (first compound 0.3162 µM); 0.182 in the experiment with Neratinib + Alpelisib (first compound 1 µM); 0.421 with Neratinib + Dasatinib (first compound 0.01 µM); 0.39 with Neratinib + Dasatinib (first compound 0.03162 µM); 0.366 in the experiment with Neratinib + Dasatinib (first compound 0.1 µM). The relative viability with Neratinib + Dasatinib (first compound 0.3162 µM) turned out to be 0.248; with Neratinib + Dasatinib (first compound 1 µM), 0.169.

On to NCI-H322M, for which the relative viability with Neratinib + Palbociclib (first compound 0.01 µM) came to 0.468; with Neratinib + Palbociclib (first compound 0.03162 µM), 0.475; with Neratinib + Palbociclib (first compound 0.1 µM), 0.417; with Neratinib + Palbociclib (first compound 0.3162 µM), 0.376; in the experiment with Neratinib + Palbociclib (first compound 1 µM) it was 0.41; in the experiment with Neratinib + Bortezomib (first compound 0.01 µM) it was 1.15. The relative viability worked out at 1.2 with Neratinib + Bortezomib (first compound 0.03162 µM); 1.1 with Neratinib + Bortezomib (first compound 0.1 µM); 0.809 with Neratinib + Bortezomib (first compound 0.3162 µM); 0.36 in the experiment with Neratinib + Bortezomib (first compound 1 µM); 0.657 with Neratinib + Alpelisib (first compound 0.01 µM); 0.839 in the experiment with Neratinib + Alpelisib (first compound 0.03162 µM). Also, the relative viability stood at 0.803 with Neratinib + Alpelisib (first compound 0.1 µM); 0.478 with Neratinib + Alpelisib (first compound 0.3162 µM); 0.218 in the experiment with Neratinib + Alpelisib (first compound 1 µM); 0.24 in the experiment with Neratinib + Dasatinib (first compound 0.01 µM); 0.237 in the experiment with Neratinib + Dasatinib (first compound 0.03162 µM); 0.237 in the experiment with Neratinib + Dasatinib (first compound 0.1 µM). For the same cell line, the relative viability came to 0.228 with Neratinib + Dasatinib (first compound 0.3162 µM) and 0.293 with Neratinib + Dasatinib (first compound 1 µM).

Regarding HOP-62, the relative viability in the experiment with Neratinib + Palbociclib (first compound 0.01 µM) amounted to 0.455; with Neratinib + Palbociclib (first compound 0.03162 µM), 0.475; in the experiment with Neratinib + Palbociclib (first compound 0.1 µM), 0.383; with Neratinib + Palbociclib (first compound 1 µM), 0.303; with Neratinib + Bortezomib (first compound 0.01 µM) it was 0.872; with Neratinib + Bortezomib (first compound 0.03162 µM), 0.855. Further, the relative viability with Neratinib + Bortezomib (first compound 0.1 µM) turned out to be 0.624; in the experiment with Neratinib + Bortezomib (first compound 0.3162 µM), 0.541; with Neratinib + Bortezomib (first compound 1 µM) it was 1; with Neratinib + Alpelisib (first compound 0.01 µM), 0.903; with Neratinib + Alpelisib (first compound 0.03162 µM), 1; in the experiment with Neratinib + Alpelisib (first compound 0.1 µM) it was 0.847. In addition, the relative viability in the experiment with Neratinib + Alpelisib (first compound 0.3162 µM) turned out to be 0.967; with Neratinib + Dasatinib (first compound 0.01 µM), 0.636; in the experiment with Neratinib + Dasatinib (first compound 0.03162 µM), 0.67; in the experiment with Neratinib + Dasatinib (first compound 0.1 µM), 0.602; with Neratinib + Dasatinib (first compound 0.3162 µM), 0.686; with Neratinib + Dasatinib (first compound 1 µM), 0.676.
